# Data from BindingDB's records for patent US11807646 (Almac Discovery, 2023).
# Biological target: T1, Ubiquitin carboxyl-terminal hydrolase 19 (Homo sapiens, UniProt O94966)
# T1 sequence (O94966 whole entry): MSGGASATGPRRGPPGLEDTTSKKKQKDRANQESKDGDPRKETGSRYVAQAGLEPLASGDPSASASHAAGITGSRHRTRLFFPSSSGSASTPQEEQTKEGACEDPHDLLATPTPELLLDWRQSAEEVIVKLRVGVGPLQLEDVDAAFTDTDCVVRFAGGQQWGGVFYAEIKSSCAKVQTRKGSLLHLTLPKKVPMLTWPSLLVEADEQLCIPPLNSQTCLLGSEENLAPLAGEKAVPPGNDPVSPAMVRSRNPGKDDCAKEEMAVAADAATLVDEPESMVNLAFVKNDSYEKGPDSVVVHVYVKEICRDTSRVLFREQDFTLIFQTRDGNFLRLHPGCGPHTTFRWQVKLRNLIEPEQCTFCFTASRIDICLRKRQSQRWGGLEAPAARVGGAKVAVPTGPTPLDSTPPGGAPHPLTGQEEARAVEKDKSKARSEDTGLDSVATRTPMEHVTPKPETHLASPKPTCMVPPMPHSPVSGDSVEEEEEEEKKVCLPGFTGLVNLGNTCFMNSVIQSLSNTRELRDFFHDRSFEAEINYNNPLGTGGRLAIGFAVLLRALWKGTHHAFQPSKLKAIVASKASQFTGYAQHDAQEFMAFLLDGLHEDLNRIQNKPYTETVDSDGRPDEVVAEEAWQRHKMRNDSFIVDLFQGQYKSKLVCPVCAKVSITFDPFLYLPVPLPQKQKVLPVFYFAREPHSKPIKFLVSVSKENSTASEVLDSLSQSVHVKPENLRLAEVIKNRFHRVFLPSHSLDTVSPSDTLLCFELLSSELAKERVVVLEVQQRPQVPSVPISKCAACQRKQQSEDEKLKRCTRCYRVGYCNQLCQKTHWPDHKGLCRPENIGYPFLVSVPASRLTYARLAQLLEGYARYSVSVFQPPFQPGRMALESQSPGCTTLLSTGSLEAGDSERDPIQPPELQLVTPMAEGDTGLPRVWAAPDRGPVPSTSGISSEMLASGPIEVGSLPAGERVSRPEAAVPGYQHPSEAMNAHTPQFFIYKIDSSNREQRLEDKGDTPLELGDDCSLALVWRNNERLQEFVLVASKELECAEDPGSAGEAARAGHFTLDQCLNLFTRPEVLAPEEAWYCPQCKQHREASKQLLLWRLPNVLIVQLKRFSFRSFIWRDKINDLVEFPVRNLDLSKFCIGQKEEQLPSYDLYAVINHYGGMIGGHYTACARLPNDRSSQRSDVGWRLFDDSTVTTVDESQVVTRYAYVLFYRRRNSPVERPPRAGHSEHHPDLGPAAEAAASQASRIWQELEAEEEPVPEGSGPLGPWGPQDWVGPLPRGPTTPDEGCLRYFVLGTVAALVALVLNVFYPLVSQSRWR
# Assay: Fluorescence Polarization (FP) Homogeneous Assay
# Procedure: Unless otherwise stated, all other reagents were purchased from Sigma. Enzymatic reactions were conducted in black flat bottom polystyrene 384-well plates (Nunc) and 30 μL total volume. […] Inhibitors were stored as 10 mM DMSO stocks in an inert environment (low humidity, dark, low oxygen, room temperature) using the Storage Pod System and serial dilutions were prepared in buffer just prior to the assay (from 200 μM to 2 pM, 8-18 data point curve). Following incubation at rt for 30 min, the enzymatic reactions were initiated by dispensing the Ub substrate (500 nM, 10 μL). FP was measured every 15 min over a period of 90 min (within the linear range of the assay) using a Synergy 4 plate reader (BioTek) exciting at 530 nm and measuring the amount of parallel and perpendicular light at 575 nm. The FP signal was subsequently normalized to the no compound control.
row,Compound,IC50
1,"O=C1CN(c2ccccc2)CCN1CC1(O)CCN(C(=O)NCc2ccccc2)CC12CCCC2 (configuration not stated) [US11807646, Example 109]",< 0.5 µM
2,"CS(C)(=O)=Nc1cn(CC2(O)CCN(C(=O)N3CCNC[C@H]3c3ccccc3)CC23CCCC3)c(=O)cc1-c1ccccc1 (some centres not stated) [US11807646, Example 191]",< 0.5 µM
3,"O=C(N1CC[C@@](O)(Cn2ncc(-c3ccccc3)cc2=O)C2(CCCC2)C1)N1CCOC[C@H]1c1ccccc1 [US11807646, Example 280]",< 0.5 µM

# Other lines, results leading:
row,IC50,Compound
1,< 0.5 µM,"CN(C)c1cc(=O)n(C[C@]2(O)CCN(C(=O)N3CCNC[C@H]3c3ccccc3)CC23CCCC3)cn1 [US11807646, Example 318]"
2,< 0.5 µM,"O=C(N1CCC(O)(Cn2cnc(-c3ccccc3)cc2=O)C2(CCOCC2)C1)N1CCNC[C@H]1c1ccccc1 (some centres not stated) [US11807646, Example 321]"
3,< 0.5 µM,"O=C(N1CC[C@@](O)(Cn2cc(F)c(-c3ccccc3)cc2=O)C2(CCCC2)C1)N1CCNC[C@H]1c1ccccc1 [US11807646, Example 331]"
4,< 0.5 µM,"O=C(N1CC[C@@](O)(Cn2cnc(-c3ccccc3)cc2=O)C2(CCCC2)C1)N1CC[S+]([O-])CC1c1ccccc1 (some centres not stated) [US11807646, Example 337]"
